Read-outs that look alike come from different tables or passages of the source.
What was measured:
patients with CAD = test: Meta-analysis of RCTs of colchicine for secondary cardiovascular prevention (pooled); type: in vivo, human
Procedure: Medline (PUBMED), EMBASE, and Cochrane central were searched to identify RCTs comparing colchicine to placebo or no colchicine for secondary cardiovascular prevention (inception to Sep. 1, 2020). To maximized sensitivity, citation chasing was performed in Google Scholar, Scopus, and Web of Science. Secondary prevention was defined as patients with clinically manifest or established CAD. Query terms included “colchicine”, “coronary artery disease”, “acute coronary syndrome”, “myocardial infarction”, “cardiovascular disease”, “atherosclerosis”, and “secondary prevention”, either separately or in combination.
RCTs that met the following criteria were included in the meta-analysis: 1) compared daily use of low-dose (0.5 mg) colchicine to placebo or no colchicine for secondary cardiovascular prevention; 2) the study reported at least one of the following outcomes: cardiovascular death, MI, stroke, cardiac arrest, or urgent coronary revascularization; 3) other than the trial medication, patients in both arms were treated in accordance to guideline directed medical therapy; 4) the minimum follow-up was at least 1 year; and 5) trials were published in a peer-reviewed scientific journal. Review articles, editorials, meta-analyses, observational studies, and published abstracts were excluded from the present meta-analysis.
Using standardized forms, data on study characteristics, patient characteristics, and outcomes were extracted on the intent-to-treat population independently by two reviewers from each eligible study. The Cochrane Collaboration risk-of-bias tool for randomized trials was used to evaluate study quality. The meta-analysis was conducted in accordance to the Preferred Reporting Items for Systematic Reviews and Meta-Analyses (PRISMA) guidelines.
The primary efficacy endpoint was a composite of cardiovascular death, MI, ischemic stroke, and urgent coronary revascularization. Secondary efficacy endpoints consisted of the components of the primary endpoint, composite of cardiovascular death, MI, and ischemic stroke, as well as deep vein thrombosis or pulmonary embolus, and atrial fibrillation (AF). To maximize consistency in pooling efficacy endpoints among trials, the primary and secondary composite efficacy and stroke endpoints in COLCOT were modified to meet the definition of primary and stroke endpoints of the LoDoCo2 trial. Therefore, adjudicated events of resuscitated cardiac arrest and non-ischemic stroke in COLCOT were excluded from the pooled primary endpoint. The component endpoint of stroke was also restricted to include only ischemic strokes. Incidence rates and hazards ratios (HRs) were calculated for the new primary composite endpoint and ischemic stroke endpoint using individual patient data from COLCOT.
Safety outcomes were limited to serious adverse events (SAEs) and included all-cause and non-cardiovascular mortality, hospitalization for gastrointestinal event, infection, and pneumonia, as well as diagnosis of cancer. Incidence of SAEs were recalculated for COLCOT using the intent-to-treat population.
The DerSimonian and Laird random-effects model was used to calculate the pooled HR and corresponding 95% confidence intervals (CI) for primary and secondary endpoints in the overall trial and in subgroup analyses of the primary endpoint. For safety outcomes, the DerSimonian and Laird random-effects model was used to compute risk ratios (RR) and corresponding 95% CIs. Heterogeneity was evaluated with the Higgins I^2 statistic. I^2 values of <25%, 25-75%, and >75% were considered to indicate low, moderate, and high degrees of heterogeneity, respectively. In subgroup analyses, the Qb statistic was calculated to determine inconsistency and variability in the treatment effect between strata. Publication and small study bias were assessed with the Egger's regression test and visually by asymmetry in funnel plots. […]

[1] = tested on: patients recruited within 30 days after a myocardial infarction; test: COLCOT safety and adverse events (safety population); type: in vivo, human
Procedure: All serious adverse events were recorded. The only other adverse events recorded were those that were considered to be related to the gastrointestinal system, events that were judged by the investigator to be related to colchicine or placebo, or laboratory abnormalities that had been judged by the investigator to be clinically significant.

[2] = tested on: patients with stable coronary disease; details: cited from earlier work
patients with stable CAD = details: cited from earlier work
[3] = colchicine vs placebo or no colchicine
[4] = safety population, listed as colchicine
[5] = LoDoCo, colchicine vs control (no colchicine)

## COc1cc2c(c(OC)c1OC)-c1ccc(OC)c(=O)cc1[C@@H](NC(C)=O)CC2 [Colchicine, colchicine]
Patients with CAD; [3]
  AF diagnoses and AF episodes, pooled HR: 0.86
  MIs, pooled HR: 0.62
  all-cause mortality, pooled RR: 1.04
  ischemic strokes, pooled HR: 0.38
  non-cardiovascular mortality, pooled RR: 1.38
  urgent coronary revascularization, pooled HR: 0.58
Patients with CAD; colchicine vs placebo or no colchicine, random-effects model
  primary composite endpoint (cardiovascular mortality, MI, ischemic stroke, urgent coronary revascularization), pooled HR: 0.68
Patients with CAD; pooled RCTs
  cardiovascular mortality, difference between arms: no statistically significant difference
  reduction in the incidence of major cardiovascular events: 32%
Patients with CAD; pooling HRs from the RCTs
  risk reduction for MIs: 38%
  risk reduction for ischemic strokes: 62%
  risk reduction for urgent coronary revascularization: 44%
[1]; at the end of the trial
  trial regimen discontinued, % of patients: 18.4%
[1]; in contrast to canakinumab
  incidence of septic shock: did not increase
[1]; safety population
  Anemia, number of patients: 14 number
  Anemia, percent of patients: (0.6) percent
  Any related adverse event, percent of patients: (16.0) percent
  Any serious adverse event, number of patients: 383 number
  Any serious adverse event, percent of patients: (16.4) percent
  Cancer, number of patients: 43 number
  Cancer, percent of patients: (1.8) percent
  Diarrhea adverse event, number of patients: 225 number
  Diarrhea adverse event, percent of patients: (9.7) percent
  Flatulence adverse event, number of patients: 15 number
  Flatulence adverse event, percent of patients: (0.6) percent
  Gastrointestinal adverse event, number of patients: 408 number
  Gastrointestinal adverse event, percent of patients: (17.5) percent
  Gastrointestinal hemorrhage, number of patients: 7 number
  Gastrointestinal hemorrhage, percent of patients: (0.3) percent
  Gastrointestinal serious adverse event, number of patients: 46 number
  Gastrointestinal serious adverse event, percent of patients: (2.0 ) percent
  Hospitalization for heart failure, number of patients: 25 number
  Hospitalization for heart failure, percent of patients: (1.1) percent
  Infection serious adverse event, number of patients: 51 number
  Infection serious adverse event, percent of patients: (2.2) percent
  Leukopenia, number of patients: 2 number
  Leukopenia, percent of patients: (0.1) percent
  Nausea adverse event, number of patients: 43 number
  Nausea adverse event, percent of patients: (1.8) percent
  Pneumonia serious adverse event, number of patients: 21 number
  Pneumonia serious adverse event, percent of patients: (0.9) percent
  Septic shock serious adverse event, number of patients: 2 number
  Septic shock serious adverse event, percent of patients: (0.1) percent
  Thrombocytopenia, number of patients: 3 number
  Thrombocytopenia, percent of patients: (0.1) percent
[1]; safety population, N = 2330
  Any related adverse event, number of patients: 372 number
[1]; [4]
  Any related adverse event, percent of patients: 16.0%
  Any serious adverse event, percent of patients: 16.4%
  Diarrhea adverse event, percent of patients: 9.7%
  Gastrointestinal adverse event, percent of patients: 17.5%
  Infection serious adverse event, percent of patients: 2.2%
  Nausea adverse event, percent of patients: 1.8%
  Pneumonia serious adverse event, percent of patients: 0.9%
[1]; statins used in 99% of trial participants
  serious adverse event of myopathy linked to colchicine: no serious adverse event
[2]; LoDoCo, N = 250, median follow-up 24 months
  Myocardial infarction, Events N: 4 N
[2]; [5]
  Ischemic stroke, HR (95% CI): 0.23 (0.03-2.03)
  Myocardial infarction, HR (95% CI): 0.25 (0.08-0.76)
[2]; LoDoCo
  Ischemic stroke, Events %: 0.4%
  Ischemic stroke, Events N: 1 N
  Myocardial infarction, Events %: 1.6%
[2]; colchicine 0.5 mg once daily, 532 patients, not placebo-controlled
  cardiovascular events vs those not receiving colchicine: fewer cardiovascular events
Patients with stable CAD; LoDoCo2, N = 2762, median follow-up 28.6 months
  Primary composite outcome (cardiovascular mortality, myocardial infarction, ischemic stroke, urgent revascularization), Events N: 187 N
Patients with stable CAD; LoDoCo2, colchicine vs placebo
  Cardiovascular mortality, HR (95% CI): 0.80 (0.44-1.44)
  Ischemic stroke, HR (95% CI): 0.66 (0.35-1.25)
  Myocardial infarction, HR (95% CI): 0.70 (0.53-0.93)
  Primary composite outcome, HR (95% CI): 0.69 (0.57-0.83)
  Urgent coronary revascularization, HR (95% CI): 0.75 (0.60-0.94)
  all-cause mortality, HR: 1.21
Patients with stable CAD; LoDoCo2, colchicine vs placebo, listed as colchicine
  Myocardial infarction, HR (95% CI): 0.70
Patients with stable CAD; LoDoCo2
  Cardiovascular mortality, Events %: 0.7%
  Cardiovascular mortality, Events N: 20 N
  Ischemic stroke, Events %: 0.6%
  Ischemic stroke, Events N: 16 N
  Myocardial infarction, Events %: 3.0%
  Myocardial infarction, Events N: 83 N
  Primary composite outcome, Events %: (6.8%)
  Urgent coronary revascularization, Events %: (4.9%)
  Urgent coronary revascularization, Events N: 135 N

— patent US11400063B2, “Early administration of low-dose colchicine after myocardial infarction” (INSTITUT DE CARDIOLOGIE DE MONTREAL, priority 2019, dated 2022)
